According to paper PMC10265666, “Lung SPLUNC1 Peptide Derivatives in the Lipid Membrane Headgroup Kill Gram-Negative Planktonic and Biofilm Bacteria” (Biomacromolecules, 2023):
Where “and” joins values, the source holds several entries; their conditions need not be identical. Equal values may be shown once.

Columns and labels:
[1] = Circular dichroism secondary structure in G(−)IM ULVs; format: physicochemical; settings: 10 μM peptide, 15 mM PBS pH 7, 37 °C
Protocol: Unilamellar vesicles (ULVs) of ∼600 Å diameter were prepared using an Avanti extruder: 200 μL of 20 mg/ml G(−)IM lipid in 15 mM PBS was extruded 21 times through Nucleopore filters of size 500 Å using 0.2 mL Hamilton syringes in the Avanti extruder. The final concentration of G(−)IM lipid in the ULVs was determined gravimetrically to be 15 mg/ml. Concentrated ULVs were added to 3 mL of 10 μM peptide in 15 mM PBS at pH 7 to create lipid/peptide molar ratios between 0:1 and 70:1. The samples remained at room temperature for ∼16 h before the CD measurement. Data were collected in 3 mL quartz cuvettes using a Jasco 1500 CD spectrophotometer at 37 °C in the Center for Nucleic Acids Science and Technology at Carnegie Mellon University. The samples were scanned from 200 to 240 nm 20 times, and the ellipticity (ϵ) results were averaged. Temperature was controlled at 37 °C via a Peltier element and water circulation through the sample compartment. Nitrogen gas was used at a flow rate between 20 and 25 ft^3/h (CFH). The parameters for scanning were: speed 100 nm/min, step size 1.0 nm, response time 1 second, bandwidth 1 nm, and sensitivity of 20 mdeg. OriginPro 2019 (OriginLab, Northampton, MA) was used to carry out a linear least-squares fit of the smoothed ellipticity traces to four secondary structural motifs representing α-helix, β-sheet, β-turn, and random coil.[20] This analysis gives a percentage match of each of the secondary structural motifs to the total sample ellipticity. Data were finally converted to mean residue ellipticity, taking into account the peptide concentration (10 μMolar) and number of amino acids (N), using the equation: MRE = (10^4/N)ϵ deg cm^2/dmol.

[2] = system: Klebsiella pneumoniae, 24 clinical isolates and 1 lab strain; format: cell-based
Protocol: Minimum inhibitory concentration (MIC, defined as the minimum AMP concentration to prevent bacterial growth) and biofilm data were obtained by UV–vis spectroscopy using a BioTek Epoch 2 microplate reader.
K. pneumoniae substrains were grown overnight using 50 mL plastic conical tubes on a shaker platform at 37 °C. The following day, serial dilutions of the four SPLUNC1 peptides and LL-37 were tested against these 25 substrains of K. pneumoniae using a 96-well plate. […] Following the addition of the peptides at the tested concentrations from serial dilutions to the K. pneumoniae substrains, the plates were incubated at 37 °C for 16 h. Then, visible spectroscopy at λ = 570 nm was performed to determine the bacterial absorption in each well. Those wells with an optical density reading above a threshold value were deemed resistant to the peptide, while those that were below the threshold value were deemed sensitive to the peptide. The threshold value was determined using Gen5 software with the Di lab Growth Inhibition Assay protocol.
Average MICs and standard deviations were calculated by first averaging the absorbances as a function of AMP concentration in all of the bacterial strains from four total data sets. Then, the average MICs were determined from the averaged absorbances. The standard deviations of the MICs were calculated from each of the absorbances that were used to calculate the average. Then, the standard deviations were averaged across substrains for the graph. These procedures were used to obtain an average MIC with standard deviation across all 25 substrains for one peptide, in order to compare peptide efficacy. Typically, many more substrains are used to obtain an average MIC, so this average MIC may change if thousands of substrains are compared.

[3] = Circular dichroism secondary structure in Euk33 ULVs; format: physicochemical; settings: 10 μM peptide, 15 mM PBS pH 7, 37 °C
[4] = system: eukaryotic cells vs bacteria; assay: Therapeutic index (eukaryotic cell kill concentration / bacterial kill concentration); format: cell-based
Protocol: But more important than cytotoxicity is the therapeutic index (TI), which is the concentration at which ≥90% of eukaryotic cells are killed divided by the concentration at which ≥90% of bacteria are killed. For A4-153, this TI value is an estimated ≈ 128 μM/16 μM ≈ 8. TI for A4-157 is an estimated 128 μM/24 μM ≈ 5, and the TI for A4-183 is an estimated 64 μM/20 μM ≈ 3.

[5] = G(−)IM/peptide molar ratio 10:1
[6] = G(−)IM/peptide molar ratio 15:1
[7] = G(−)IM/peptide molar ratio 20:1
[8] = G(−)IM/peptide molar ratio 30:1
[9] = G(−)IM/peptide molar ratio 50:1
[10] = G(−)IM/peptide molar ratio 70:1
[11] = G(−)IM/peptide molar ratio 25:1
[12] = G(−)IM/peptide molar ratio 40:1

## GVKKKWKKKLGLTLWLKISGVV [A4-198, version scrambled to α-helical content, with a similar hydrophobicity as A4-153]
[1]; G(−)IM/peptide molar ratio 0:1
  Random: 35.9%
  α-helix: 2.9%
  β-sheet: 56.7%
  β-turn: 4.5%
[1]; G(−)IM/peptide molar ratio 1:1
  Random: 32.7%
  α-helix: 2.6%
  β-sheet: 55.9%
  β-turn: 8.8%
[1]; G(−)IM/peptide molar ratio 5:1
  Random: 41.0%
  α-helix: 22.0%
  β-sheet: 24.4%
  β-turn: 12.6%
[1]; [5]
  Random: 42.11%
  α-helix: 15.5%
  β-sheet: 32.0%
  β-turn: 10.4%
[1]; [6]
  Random: 12.1%
  α-helix: 9.1%
  β-sheet: 48.1%
  β-turn: 30.7%
[1]; [7]
  Random: 30.7%
  α-helix: 4.6%
  β-sheet: 44.5%
  β-turn: 20.2%
[1]; [8]
  Random: 34.9%
  α-helix: 0.2%
  β-sheet: 44.5%
  β-turn: 20.4%
[1]; [9]
  Random: 37.6%
  α-helix: 0.2%
  β-sheet: 46.4%
  β-turn: 15.8%
[1]; [10]
  Random: 37.1%
  α-helix: 2.0%
  β-sheet: 46.2%
  β-turn: 14.7%
[2]; average over 25 K. pneumoniae substrains, 37 °C, 16 h, OD 570 nm, growth at 32 μM counted as 64 μM
  average MIC value: highest MIC value
[2]; tested G(−) bacteria (K. pneumoniae)
  antibacterial efficacy: ineffective
[3]; Euk33/peptide molar ratio 0:1
  Random: 35.9%
  α-helix: 2.9%
  β-sheet: 56.7%
  β-turn: 4.5%
[3]; Euk33/peptide molar ratio 5:1
  Random: 34.7%
  α-helix: 5.7%
  β-sheet: 53.6%
  β-turn: 6.0%
[3]; Euk33/peptide molar ratio 10:1
  Random: 37.0%
  α-helix: 5.9%
  β-sheet: 51.9%
  β-turn: 5.2%
[3]; Euk33/peptide molar ratio 30:1
  Random: 38.7%
  α-helix: 6.2% and 6%
  β-sheet: 49.4%
  β-turn: 5.7%
[3]; Euk33/peptide molar ratio 70:1
  Random: 41.8%
  α-helix: 10.3%
  β-sheet: 47.9%
  β-turn: 0%

## CC(C)[C@H](NC(=O)CNC(=O)CNC(=O)[C@@H](NC(=O)[C@H](Cc1c[nH]c2ccccc12)NC(=O)CNC(=O)[C@H](CCCCN)NC(=O)[C@@H](NC(=O)[C@H](CCCCN)NC(=O)[C@H](CCCCN)NC(=O)[C@H](Cc1ccccc1)NC(=O)[C@H](Cc1ccccc1)NC(=O)[C@H](CCCCN)NC(=O)[C@H](CCCCN)NC(=O)[C@@H](N)Cc1ccccc1)C(C)C)C(C)C)C(=O)N[C@@H](Cc1c[nH]c2ccccc12)C(=O)NCC(=O)N[C@@H](CCCCN)C(=O)N[C@H](C(=O)N[C@@H](CCCCN)C(=O)N[C@@H](CO)C(=O)N[C@H](C(=O)N[C@H](C(=O)N[C@@H](CCCCN)C(=O)O)C(C)C)C(C)C)C(C)C (stereo in doubt) [A4-157]
[1]; G(−)IM/peptide molar ratio 0:1
  Random: 61.7%
  α-helix: 4.57%
  β-sheet: 33.6%
  β-turn: 0%
[1]; G(−)IM/peptide molar ratio 1:1
  Random: 61.7%
  α-helix: 6.9%
  β-sheet: 31.4%
  β-turn: 0%
[1]; G(−)IM/peptide molar ratio 5:1
  Random: 59.5%
  α-helix: 15.1%
  β-sheet: 25.4%
  β-turn: 0%
[1]; [5]
  Random: 52.6%
  α-helix: 19.0%
  β-sheet: 28.3%
  β-turn: 0.1%
[1]; [6]
  Random: 20.1%
  α-helix: 46.0%
  β-sheet: 33.9%
  β-turn: 0%
[1]; [7]
  Random: 26.5%
  α-helix: 49.3%
  β-sheet: 24.2%
  β-turn: 0%
[1]; [11]
  Random: 8.3%
  α-helix: 61.0%
  β-sheet: 28.5%
  β-turn: 2.2%
[1]; [8]
  Random: 8.1%
  α-helix: 62.1% and 62%
  β-sheet: 28.7%
  β-turn: 1.1%
[1]; [12]
  Random: 0%
  α-helix: 59.5%
  β-sheet: 40.5%
  β-turn: 0%
[1]; [9]
  Random: 1.0%
  α-helix: 56.4%
  β-sheet: 33.6%
  β-turn: 0%
[1]; [10]
  Random: 13.2%
  α-helix: 51.2%
  β-sheet: 35.6%
  β-turn: 0%
[3]; Euk33/peptide molar ratio 0:1
  Random: 61.7%
  α-helix: 4.57%
  β-sheet: 33.6%
  β-turn: 0%
[3]; Euk33/peptide molar ratio 5:1
  Random: 64.2%
  α-helix: 3.3%
  β-sheet: 32.5%
  β-turn: 0%
[3]; Euk33/peptide molar ratio 10:1
  Random: 64.4%
  α-helix: 7.3%
  β-sheet: 28.3%
  β-turn: 0%
[3]; Euk33/peptide molar ratio 30:1
  Random: 59.1%
  α-helix: 10%
  β-sheet: 30.9%
  β-turn: 0%
[3]; Euk33/peptide molar ratio 70:1
  Random: 42.5%
  α-helix: 7.4%
  β-sheet: 50.1%
  β-turn: 0%
[4]; denominator of TI
  concentration at which ≥90% of bacteria are killed: 24 µM
[4]; numerator of TI
  concentration at which ≥90% of eukaryotic cells are killed (estimated): ≈ 128 μM
